Assay results taken from US8546565B2, “Quinazolinamide derivatives” (Merck Patent Gesellschaft, priority 2008, dated 2013).

These molecules were tested against T1, Recombinant human HSP90a (Homo sapiens, UniProt P07900) (assay: HSP90 radioligand filter binding test ([3H]17AAG competition)). Settings: [3H]17AAG 0.08 μM, HSP90 1.5 μg/assay, 22° C., 30 min; read-out: IC50 (HSP90 inhibition).
T1 construct: host or cells: E. coli
Source text: Test Method for the Measurement of HSP90 Inhibitors
The binding of geldanamycin or 17-allylamino-17-demethoxygeldanamycin (17AAG) to HSP90 and competitive inhibition thereof can be utilised in order to determine the inhibitory activity of the compounds according to the invention (Carreras et al. 2003, Chiosis et al. 2002).
In the specific case, a radioligand filter binding test is used. The radioligand used here is tritium-labelled 17-allylaminogeldanamycin, [3H]17AAG. This filter binding test allows a targeted search for inhibitors which interfere with the ATP binding site.
Recombinant human HSP90a (E. coli expressed, 95% purity);
[3H]17AAG (17-allylaminogeldanamycin, [allylamino-2,3-^3H. Specific activity: 1.11×10^12 Bq/mmol (Moravek, MT-1717);
HEPES filter buffer (50 mM HEPES, pH 7.0, 5 mM MgCl2, BSA 0.01%)
Multiscreen FB (1 μm) filter plate (Millipore, MAFBNOB 50).
The 96-well microtitre filter plates are firstly irrigated and coated with 0.1% of polyethylenimine.
The test is carried out under the following conditions:
Reaction temperature 22° C.
Reaction time: 30 min., shaking at 800 rpm
50 mM HEPES HCl, pH 7.0, 5 mM MgCl2, 0.01% (w/v) of BSA
At the end of the reaction, the supernatant in the filter plate is removed by suction with the aid of a vacuum manifold (Multiscreen Separation System, Millipore), and the filter is washed twice.
The filter plates are then measured in a beta counter (Microbeta, Wallac) with scintillator (Microscint 20, Packard).
“% of control” is determined from the “counts per minutes” values, and the IC-50 value of a compound is calculated therefrom.

IC50 [µM]	SMILES
0.01 to 1	Nc1nc(C(=O)N2Cc3ccccc3C2)c2cc(-c3ccccc3C(=O)N3CCC(O)C3)ccc2n1 (centres unmarked) [Compound A36]
1 to 10	CCN(CC)C(=O)c1cc(OC)c(OC)cc1-c1ccc2nc(N)nc(C(=O)N3Cc4ccccc4C3)c2c1 [Compound A88, 2-[2-Amino-4-(1,3-dihydroisoindole-2-carbonyl)quinazolin-6-yl]-N,N-diethyl-4,5-dimethoxybenzamide]
0.01 to 1	CC(CN(C)C)NS(=O)(=O)c1ccccc1-c1ccc2nc(N)nc(C(=O)N3Cc4ccccc4C3)c2c1 (centres unmarked) [Compound A17]
0.01 to 1	Nc1nc(C(=O)N2Cc3ccccc3C2)c2cc(-c3ccccc3S(N)(=O)=O)ccc2n1 [Compound A2, 2-[2-amino-4-(1,3-dihydroisoindole-2-carbonyl)quinazolin-6-yl]-benzenesulfonamide]
> 10	CCNC(=O)c1cc(OC)c(OC)cc1-c1ccc2nc(N)nc(C(=O)N3Cc4ccccc4C3)c2c1 [Compound A84, 2-[2-Amino-4-(1,3-dihydroisoindole-2-carbonyl)quinazolin-6-yl]-N-ethyl-4,5-dimethoxybenzamide]
0.01 to 1	CCN(C)C(=O)c1cc(F)c(F)cc1-c1ccc2nc(N)nc(C(=O)N3Cc4ccccc4C3)c2c1 [Compound A77, 2-[2-Amino-4-(1,3-dihydroisoindole-2-carbonyl)quinazolin-6-yl]-N-ethyl-4,5-difluoro-N-methylbenzamide]
0.01 to 1	NCC(=O)OC1CCN(S(=O)(=O)c2ccccc2-c2ccc3nc(N)nc(C(=O)N4Cc5ccccc5C4)c3c2)CC1 [Compound A10, 1-{2-[2-amino-4-(1,3-dihydroisoindole-2-carbonyl)quinazolin-6-yl]benzenesulfonyl}piperidin-4-yl aminoacetate]
0.01 to 1	Nc1nc(C(=O)N2Cc3ccccc3C2)c2cc(-c3ccccc3S(=O)(=O)N3CCC(O)CC3)ccc2n1 [Compound A9]
0.01 to 1	Nc1nc(C(=O)N2Cc3ccccc3C2)c2cc(-c3ccccc3S(=O)(=O)N3CCCC3)ccc2n1 [Compound A32, {2-Amino-6-[2-(pyrrolidine-1-sulfonyl)phenyl]quinazolin-4-yl}-(1,3-dihydroisoindol-2-yl)methanone]
0.01 to 1	CN(C(C)(C)C)S(=O)(=O)c1ccccc1-c1ccc2nc(N)nc(C(=O)N3Cc4ccccc4C3)c2c1 [Compound A59, 2-[2-Amino-4-(1,3-dihydroisoindole-2-carbonyl)quinazolin-6-yl]-N-tert-butyl-N-methylbenzenesulfonamide]
0.01 to 1	Nc1nc(C(=O)N2Cc3ccccc3C2)c2cc(-c3ccccc3S(=O)(=O)N3CCNC(=O)C3)ccc2n1 [Compound A12]
0.01 to 1	Nc1nc(C(=O)N2Cc3ccccc3C2)c2cc(-c3ccccc3S(=O)(=O)N3CC[C@H](F)C3)ccc2n1 [Compound A67, {2-Amino-6-[2-((S)-3-fluoropyrrolidine-1-sulfonyl)phenyl]quinazolin-4-yl}-(1,3-dihydroisoindol-2-yl)methanone]
0.01 to 1	CCN(CC)C(=O)c1ccc(F)cc1-c1ccc2nc(N)nc(C(=O)N3Cc4ccccc4C3)c2c1 [Compound A70]
0.01 to 1	CC(C)(C)NS(=O)(=O)c1ccccc1-c1ccc2nc(N)nc(C(=O)N3Cc4ccccc4C3)c2c1 [Compound A1, 2-[2-Amino-4-(1,3-dihydroisoindole-2-carbonyl)quinazolin-6-yl]-N-tert-butylbenzenesulfonamide]

The remaining lines, values behind:

SMILES	IC50 [µM]
Nc1nc(C(=O)N2Cc3ccccc3C2)c2cc(-c3ccccc3C(=O)N3CCC(O)CC3)ccc2n1 [Compound A23]	0.01 to 1
COC(=O)C1CCCN1C(=O)c1ccccc1-c1ccc2nc(N)nc(C(=O)N3Cc4ccccc4C3)c2c1 (centres unmarked) [Compound A37, Methyl 1-{2-[2-amino-4-(1,3-dihydroisoindole-2-carbonyl)quinazolin-6-yl]benzoyl}pyrrolidine-2-carboxylate]	0.01 to 1
CC(=O)NC1CCN(S(=O)(=O)c2ccccc2-c2ccc3nc(N)nc(C(=O)N4Cc5ccccc5C4)c3c2)C1 (centres unmarked) [Compound A20]	0.01 to 1
COc1cc(C(=O)NC(C)(C)C)c(-c2ccc3nc(N)nc(C(=O)N4Cc5ccccc5C4)c3c2)cc1OC [Compound A85, 2-[2-Amino-4-(1,3-dihydroisoindole-2-carbonyl)quinazolin-6-yl]-N-tert-butyl-4,5-dimethoxybenzamide]	> 10
CCNC(=O)c1ccccc1-c1ccc2nc(N)nc(C(=O)N3Cc4ccccc4C3)c2c1 [Compound A41, 2-[2-Amino-4-(1,3-dihydroisoindole-2-carbonyl)quinazolin-6-yl]-N-ethylbenzamide]	0.01 to 1
CN(C1CNC1)S(=O)(=O)c1ccccc1-c1ccc2nc(N)nc(C(=O)N3Cc4ccccc4C3)c2c1 [Compound A68]	0.01 to 1
CN(C)CCNS(=O)(=O)c1ccccc1-c1ccc2nc(N)nc(C(=O)N3Cc4ccccc4C3)c2c1 [Compound A3]	0.01 to 1
CC1CCC(C)N1C(=O)c1ccccc1-c1ccc2nc(N)nc(C(=O)N3Cc4ccccc4C3)c2c1 (centres unmarked) [Compound A57]	0.01 to 1
CCN(C)C(=O)c1ccccc1-c1ccc2nc(N)nc(C(=O)N3Cc4ccccc4C3)c2c1 [Compound A39]	0.01 to 1
NCCNS(=O)(=O)c1ccccc1-c1ccc2nc(N)nc(C(=O)N3Cc4ccccc4C3)c2c1 [Compound A14, 2-[2-Amino-4-(1,3-dihydroisoindole-2-carbonyl)quinazolin-6-yl]-N-(2-aminoethyl)benzenesulfonamide]	0.01 to 1
CCNS(=O)(=O)c1ccccc1-c1ccc2nc(N)nc(C(=O)N3Cc4ccccc4C3)c2c1 [Compound A5, 2-[2-Amino-4-(1,3-dihydroisoindole-2-carbonyl)quinazolin-6-yl]-N-ethylbenzenesulfonamide]	0.01 to 1
CCN(CCN(C)C)C(=O)c1ccccc1-c1ccc2nc(N)nc(C(=O)N3Cc4ccccc4C3)c2c1 [Compound A55]	0.01 to 1
CN(C)C(=O)c1ccccc1-c1ccc2nc(N)nc(C(=O)N3Cc4ccccc4C3)c2c1 [Compound A38]	0.01 to 1
CCN(CC)C(=O)c1cc(F)c(F)cc1-c1ccc2nc(N)nc(C(=O)N3Cc4ccccc4C3)c2c1 [Compound A69, 2-[2-Amino-4-(1,3-dihydroisoindole-2-carbonyl)quinazolin-6-yl]-N,N-diethyl-4,5-difluorobenzamide]	0.01 to 1
CCNC(=O)c1cc(F)c(F)cc1-c1ccc2nc(N)nc(C(=O)N3Cc4ccccc4C3)c2c1 [Compound A74, 2-[2-Amino-4-(1,3-dihydroisoindole-2-carbonyl)quinazolin-6-yl]-N-ethyl-4,5-difluorobenzamide]	0.01 to 1
C[C@@H]1CCCN1S(=O)(=O)c1ccccc1-c1ccc2nc(N)nc(C(=O)N3Cc4ccccc4C3)c2c1 [Compound A66, {2-Amino-6-[2-((R)-2-methylpyrrolidine-1-sulfonyl)phenyl]quinazolin-4-yl}-(1,3-dihydroisoindol-2-yl)methanone]	0.01 to 1
CCN(CC)C(=O)c1ccccc1-c1ccc2nc(N)nc(C(=O)N3Cc4ccccc4C3)c2c1 [Compound A40, 2-[2-Amino-4-(1,3-dihydroisoindole-2-carbonyl)quinazolin-6-yl]-N,N-diethylbenzamide]	0.01 to 1
Nc1nc(C(=O)N2Cc3ccccc3C2)c2cc(-c3ccccc3S(=O)(=O)n3ccnc3)ccc2n1 [Compound A27, {2-Amino-6-[2-(imidazole-1-sulfonyl)phenyl]quinazolin-4-yl}-(1,3-dihydroisoindol-2-yl)methanone]	1 to 10
